Data on one substance can be found in patent US11286278B2, “DPEP-1 binding agents and methods of use” (Arch Biopartners, Inc., priority 2018, dated 2022).

Ends that are not written are not given here.

In data set [1] the target is T1, human DPEP2 (Homo sapiens, UniProt Q9H4A9).
T1 construct: expressed in transfected cells; host or cells: Cos-1
In words: Immunofluorescence binding to Cos-1 cells transfected with human DPEP2. Conditions: Alexa-488 conjugate. The procedure:
Cos-1 cells were transiently transfected with either 3 μg of human DPEP-1, DPEP2, or DPEP3 gene using Lipofectamine 2000 (Invitrogen) reagent in OptiMEM medium. 24 hours after transfection, DPEP-1, DPEP2, or DPEP3 expressing cells were re-seeded on collagen coated (neutralized) wells in 24 well plates and allowed to grow for 24 hours at 37° C. […] Cells were blocked with FBS/NBSA/Tween in PBS for 30 minutes on ice. Cells were then washed with PBS and incubated with LSALT or GFE-1, conjugated with Alexa-488 (green). After incubation, cells were washed with PBS and stained with DAPI for 5 minutes on ice. Cells were then washed with PBS and fixed using 4% paraformaldehyde and immunofluorescence microscopy was performed to assess binding. Representative photomicrographs are shown for each experimental condition (n=3) in FIG. 6A. Proteins from DPEP-1, DPEP2 and DPEP3 transfected cells were isolated after 48 hours using octyl-glucoside/RIPA lysis buffer and western blot analysis was performed to assess DPEP-1, DPEP2 and DPEP3 protein expression using specific antibodies; DPEP-1 antibody (Sigma), DPEP2 (Abcam) and DPEP3 (Santacruz). Blots were stripped and reprobed with an anti-β-actin.

For data set [2], the system named is neutrophil adhesion in the hepatic sinusoids. The data set can be described thus: Neutrophil adhesion in hepatic sinusoids after LPS, intravital microscopy. Conditions: LysM gfp mice, LPS 0.5 mg/kg i.p., peptide 1 mM i.v. It is filed as in vivo, mouse. The protocol: Six to ten week old LysM^(gfp) mice were injected with 1 mM dose of LSALT or 1KGAL (control) (intravenous) 5 minutes after the injection of 0.5 mg/kg of lipopolysaccharide (intraperitoneal). After 3 hours, animals were injected with ketamine and xylazine to provide general anesthesia. Fluorescently conjugated F4/80 and PECAM-1 antibodies were then administered via jugular vein cannulation and intravital spinning disk confocal microscopy was performed. The livers were imaged for an hour and the number of neutrophils were counted at different time points. Neutrophils which were stationary for ≥30 seconds in the liver sinusoids were counted as adherent cells. Data are representative of three independent experiments. An unpaired 2-tailed student's t-test was performed comparing LSALT, […] control treated group against the LPS treated group (*p<0.05).

The nature of data set [3]: Incubation in whole human blood, LC/MS of metabolites. Conditions: 50 μg/mL, whole human blood (citrate or K2 EDTA), up to 120 min. Format: in vitro ADME. The protocol:
Plasma was separated for each sample and phosphoric acid added to stabilize peptide at each timepoint. Samples were assessed for LSALT and its' metabolites using LC/MS. LSALT metabolites were identified using PEAKS X and database searches against LSALT and the human proteome. […] Transfected cells were positively selected for using geneticin resistance and subcloned to generate stably transfected DPEP1 clones. Stably transfected DPEP1 HEK cells were resuspended and incubated with biotinylated LSALT fragment peptides (50 μM) for 1 hour at 37° C. before PBS washes. Bound biotinylated peptide was detected via secondary streptavidin fluorescent conjugate (30 min. incubation at 37° C.) and washed with PBS. Peptide binding was analyzed via flow cytometer. Percentage of peptide binding was compared relative to negative control. […] LysM^(gfp) mice were subjected to endotoxemia via intravenous injection of lipopolysaccharide (LPS, O111:B4) at a dose of 5 mg/kg. The kidney was imaged using multiphoton microscopy at 4 hours post-injection. Various LSALT fragments was used intravenously to pretreat mice 10 min. before LPS injection. Inflammation was quantified by manual counting of monocyte adhesion in single microscopy fields (LPS vs. Fragment C; n=3-6 fields/group; ***:p=0.004).

The subject of data set [4] is activated (TNFα and IL1β treated) HLMVEC. The data set can be described thus: Cancer cell binding to activated human lung microvascular endothelial cells. It is filed as cell-based. The following applies: 50 μM. The text has this:
LSALT decreases binding of metastatic cancer cells to human lung microvascular endothelial cells (HLMVEC) activated by TNFα and IL1β.

Data set [5] addresses T2, DPEP1 (Homo sapiens, UniProt P16444).
T2 sequence (P16444 17-385): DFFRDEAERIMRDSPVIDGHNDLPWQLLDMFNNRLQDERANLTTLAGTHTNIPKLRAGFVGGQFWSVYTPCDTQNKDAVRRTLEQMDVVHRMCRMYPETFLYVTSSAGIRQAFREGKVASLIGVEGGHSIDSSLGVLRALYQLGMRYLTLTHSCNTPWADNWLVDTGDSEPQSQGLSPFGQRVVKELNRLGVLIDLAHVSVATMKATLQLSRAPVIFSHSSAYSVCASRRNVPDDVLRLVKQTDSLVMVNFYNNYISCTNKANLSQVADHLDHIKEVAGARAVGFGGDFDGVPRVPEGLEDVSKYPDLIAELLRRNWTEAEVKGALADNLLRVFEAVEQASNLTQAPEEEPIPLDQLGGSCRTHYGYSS
In words: Biotin transfer, neutravidin precipitation and DPEP1 western blot. It is filed as binding. On the set-up: expressed in transfected cells; host or cells: Cos-1. The following applies: 10 mg/ml biotin transfer peptide, UV activation. The protocol:
Cos-1 cells were transiently transfected with either 3 or 5 μg of membrane dipeptidase (DPEP-1) cDNA corresponding to the rat (Shown in FIG. 5A), human (Shown in FIG. 5B), or canine (Shown in FIG. 5E) DPEP-1 gene using Lipofectamine 2000 (Invitrogen) reagent in OptiMEM medium. 24 hours after transfection, DPEP-1 expresisng cells were re-seeded on collagen coated (neutralized) wells in 24 well plates and allowed to grow for 24 hours at 37° C. […] Cells were blocked with FBS/NBSA/Tween in PBS for 30 minutes on ice. Cells were then washed with PBS and incubated with Alexa-488 (green) conjugated LSALT, GFE-1, control peptide or DPEP-1 antibody ( 1/100) (Sigma) on ice for 30 minutes. […] After incubation, cells were washed with PBS and treated with 10 mg/ml biotin transfer peptide (LSALT, GFE-1 or Control Peptide (KGAL)] for 10 minutes. Cells were then washed with PBS and biotin transfer was enabled by UV activation of the aryl azide groups for 15 minutes at 363 nm. Residual fluid was removed and monolayers were lysed either with octyl-glucoside/RIPA or 8M urea. Isolated supernatants were rotated with 50 μl of neutr-avidin agarose beads at 4° C. for 24 hours. Beads were washed with corresponding buffers, boiled in Laemmli buffer and analyzed by western blot using a DPEP-1 specific antibody (Proteintech).
A general note: A western blot detects proteins with antibodies after separation by electrophoresis.

T1 sequence (Q9H4A9 33-463): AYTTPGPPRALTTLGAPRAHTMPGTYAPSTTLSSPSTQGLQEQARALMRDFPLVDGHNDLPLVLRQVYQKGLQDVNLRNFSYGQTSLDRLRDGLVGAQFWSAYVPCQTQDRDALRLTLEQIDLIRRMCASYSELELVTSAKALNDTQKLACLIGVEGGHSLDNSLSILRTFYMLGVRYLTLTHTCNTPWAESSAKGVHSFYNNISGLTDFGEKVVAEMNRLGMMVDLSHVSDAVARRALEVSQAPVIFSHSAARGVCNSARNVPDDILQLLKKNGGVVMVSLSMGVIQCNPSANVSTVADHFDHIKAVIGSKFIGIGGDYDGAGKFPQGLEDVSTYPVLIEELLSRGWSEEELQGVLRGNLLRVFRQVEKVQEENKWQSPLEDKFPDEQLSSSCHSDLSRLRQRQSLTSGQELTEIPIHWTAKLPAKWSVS

Consider H-LSALTPSPSWLKYKAL [LSALT], for which the “binding to human DPEP2 transfected Cos-1 cells” value in data set [1] is “does not Bind”. The “neutrophil adhesion in the hepatic sinusoids” value in data set [2] is reported as “inhibits neutrophil adhesion in the hepatic sinusoids”. Also, the “metabolism in whole blood” value in data set [3] is on record as “metabolized in whole blood into smaller fragments”. In data set [4], the “binding of murine melanoma cells (B16-F10) to activated HLMVEC” value was “decreased binding” and the “binding of murine sarcoma cells (Tao-1) to activated HLMVEC” value is “decreased binding”. Also, the “interaction with DPEP1 by biotin transfer” value in data set [5] is on record as “able to interact with DPEP1”.
